# According to patent publication US8569376B2, “Methods and compositions for reducing body fat and adipocytes” (Topokine Therapeutics, Inc., priority 2011, dated 2013):
# “Also recorded” adds a separate entry of the source. Marks after values point to notes of the source that are not given here.
# Columns and labels:
# [1] = test system: adipose tissue and adipocytes; assay: Randomized controlled trial in (db-/db-) mice: histologic examination of treated skin and subcutaneous fat; type: in vivo, mouse; conditions: treated flank, after 21 days of 5 mM topical treatment
# Experimental: (§1) A randomized controlled trial was conducted on (db-/db-) mice. Mice six weeks old were prospectively randomized into groups and assigned to the following treatment conditions (n=5 animals per group): [table] At the start of the study, hair on the right flank of each animal was clipped and depilated. Animals were kept in identical conditions and fed ab libitum. Animals were weighed daily. Following 21 consecutive days of treatment, samples of skin and adjacent fat were obtained from the treated flanks, fixed in formalin, and stained with hematoxylin and eosin for histologic examination.
# human preadipocytes = human preadipocytes in primary cell culture; cited from earlier work
# dorsocervical fat pad = assay: Randomized double-blind study in HIV lipodystrophy subjects, dorsocervical fat by US/CT; type: in vivo; conditions: human, e.g. 0.03% in transdermal vehicle once a day, e.g. after 3 months
# Source text: The following experiment describes a randomized, double-blind study in human subjects to test whether locally administered Tafluprost reduces fat in the dorsocervical fat pad of HIV-seropositive patients on antiretroviral therapy who are suffering from HIV lipodystrophy. Eligible subjects (for example, n=40) with HIV lipodystrophy and abnormal accumulation of fat on the dorsal neck are entered into a randomized double-blind study. Subjects are randomized in 1:1 fashion to receive either Tafluprost, for example, 0.03%, in a suitable transdermal vehicle, or vehicle alone. The vehicle is, for example, Lipoderm® (PCCA, Houston, Tex.). Unit-dose syringes (for example, 0.5 ml per syringe) are furnished to subjects by a study pharmacist; syringes are unlabeled as to the presence of Tafluprost or vehicle. Subjects are instructed to apply, once a day, the contents of one syringe to the affected area on the back of the neck. Serial ultrasound (US) and/or computed tomography (CT) scans are conducted at the beginning of the study and then at monthly intervals. Treatment continues for 6 months.
# [2] = Randomized controlled trial in (db-/db-) mice, topical to flank: body weight change; type: in vivo, mouse; conditions: 21-day study; for Absolute weight change / Relative weight change: 5 mM topical, 0.1 cc to flank daily
# Experimental: as §1
# [3] = test system: peroxisome proliferator-activated receptor-gamma (PPARγ), CCAAT-enhancer-binding protein α (C/EBPα), and lipoprotein lipase; conditions: human preadipocytes; no statistical differences; cited from earlier work
structure (smiles),measurement,setting,value
CC(C)OC(=O)CCC/C=C\C[C@@H]1[C@@H](/C=C/C(F)(F)COc2ccccc2)[C@H](O)C[C@@H]1O [Tafluprost],"adipose thickness and adipocyte size in histologic sections, compared to Vehicle",[1],reduced adipose thickness and adipocyte size; also recorded: inhibited adipose tissue and adipocytes
same,adipocyte differentiation,human preadipocytes,40 % of control
same,"reduction in depth and/or cross-sectional area of dorsocervical fat by serial US or CT, compared to vehicle alone",dorsocervical fat pad,more reduction in the depth and/or cross-sectional area of dorsocervical fat
same,Absolute weight change,[2],−2.4* g
same,Relative weight change,[2],−8.2% over Day 0
same,weight loss,[2]; topical,about 8 % of baseline body weight
CCNC(=O)CCC/C=C\C[C@@H]1[C@@H](/C=C/[C@@H](O)CCc2ccccc2)[C@H](O)C[C@@H]1O [Bimatoprost],"adipose thickness and adipocyte size in histologic sections, compared to Vehicle",[1],did not show these effects
same,adipocyte differentiation,human preadipocytes,30 % of control
same,Absolute weight change,[2],6.4 g
same,Relative weight change,[2],22.9% over Day 0
same,weight gain,[2]; topical,23-24 % of baseline body weight
same,"inhibition of expression of adipogenic genes PPARγ, C/EBPα and lipoprotein lipase",[3],slightly more inhibition than Tafluprost
